Reference: US9458176B2, “Tetrahydroimidazo(1,5-D)[1,4]oxazepine derivative” (Eisai R&D Management Co., Ltd., priority 2013, dated 2016)

Target: human mGluR2 (Homo sapiens (Human), UniProt Q14416)
Experiment: [35S]GTPγS binding assay (Affinity to mGluR2)
Assay type: biochemical
Conditions: cell membrane fraction of HEK293 cells stably expressing human mGluR2; glutamic acid 10 μM
Outline: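 Membranes from HEK293 cells stably co-expressing human mGluR2 and SLC1A3 (1.8–3 μg protein) preincubated with compound 30 min at RT, then stimulated with 10 μM glutamate 15 min; [35S]GTPγS (0.8 kBq) with WGA-SPA beads 1 h, buffer with 3 μM GDP, 100 mM NaCl, 1 mM MgCl2. IC50 from inhibition of glutamate-specific binding.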

Sequence of human mGluR2 (Q14416 19-872): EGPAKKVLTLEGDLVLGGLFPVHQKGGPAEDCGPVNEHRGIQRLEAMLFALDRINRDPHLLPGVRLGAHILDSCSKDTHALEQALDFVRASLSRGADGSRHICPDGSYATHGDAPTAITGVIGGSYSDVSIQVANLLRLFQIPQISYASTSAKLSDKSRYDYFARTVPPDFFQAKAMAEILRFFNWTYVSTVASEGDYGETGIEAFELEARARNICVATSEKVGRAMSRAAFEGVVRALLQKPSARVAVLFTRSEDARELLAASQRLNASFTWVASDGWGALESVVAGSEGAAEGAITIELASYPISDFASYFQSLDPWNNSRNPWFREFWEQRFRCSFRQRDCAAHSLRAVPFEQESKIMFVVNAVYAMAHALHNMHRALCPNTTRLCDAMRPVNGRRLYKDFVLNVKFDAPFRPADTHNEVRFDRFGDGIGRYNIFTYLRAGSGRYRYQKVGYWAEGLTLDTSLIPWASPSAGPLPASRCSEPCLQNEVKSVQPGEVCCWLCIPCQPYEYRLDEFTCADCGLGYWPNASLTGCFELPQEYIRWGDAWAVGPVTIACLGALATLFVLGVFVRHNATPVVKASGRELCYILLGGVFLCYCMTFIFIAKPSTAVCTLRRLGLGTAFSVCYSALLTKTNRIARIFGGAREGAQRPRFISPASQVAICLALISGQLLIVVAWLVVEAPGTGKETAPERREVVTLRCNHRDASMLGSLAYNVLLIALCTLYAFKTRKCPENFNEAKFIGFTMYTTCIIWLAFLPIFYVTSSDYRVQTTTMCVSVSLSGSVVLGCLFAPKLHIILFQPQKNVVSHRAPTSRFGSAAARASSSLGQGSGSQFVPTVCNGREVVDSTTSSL

Structure (SMILES) | IC50 [nM]
Cc1cc(-c2nc(-c3ccc(C(F)(F)F)c(C)c3)n3c2CCOCC3)cc(C)n1 [Example 113] | 27
Cc1cc(-c2nc(-c3ccc(Cl)c(F)c3)n3c2CCO[C@H](C)C3)ccn1 [Example 58] | 41.8
Cc1cc(-c2nc(-c3ccc(OCc4ccccc4)c(F)c3)n3c2CCOCC3)cc(C)n1 [Example 49] | 11.4
Cc1cc(-c2nc(-c3ccc(OC(F)(F)F)cc3)n3c2CCO[C@H](C)C3)cc(CF)n1 [Example 86] | 4.4
CC[C@@H]1Cn2c(-c3ccc(Cl)c(OC)c3)nc(-c3ccnc(C)c3)c2CCO1 [Example 78] | 3.8
COc1cc(-c2nc(-c3cc(C)nc(C)c3)c3n2CCOCC3)ccc1Br [Example 4, 3-(4-bromo-3-methoxyphenyl)-1-(2,6-dimethylpyridin-4-yl)-5,6,8,9-tetrahydroimidazo[1,5-d][1,4]oxazepine] | 31.9
COc1cc(-c2nc(-c3cc(C)nc(C)c3)c3n2C[C@@H](C)OCC3)ccc1C(F)F [Example 128] | 9.1
COc1cc(-c2nc(-c3cc(C)nc(CF)c3)c3n2C[C@@H](C)OCC3)ccc1Cl [Example 13, (R)-3-(4-chloro-3-methoxyphenyl)-1-(2-(fluoromethyl)-6-methylpyridin-4-yl)-6-methyl-5,6,8,9-tetrahydroimidazo[1,5-d][1,4]oxazepine] | 5.7
Cc1cc(-c2nc(-c3ccc(Cl)c(Cl)c3)n3c2CCOCC3)cc(C)n1 [Example 103] | 26
Cc1cc(-c2nc(-c3ccc(OC(F)(F)F)c(C)c3)n3c2CCO[C@H](C)C3)ccn1 [Example 9, (R)-6-methyl-3-(3-methyl-4-(trifluoromethoxy)phenyl)-1-(2-methylpyridin-4-yl)-5,6,8,9-tetrahydroimidazo[1,5-d][1,4]oxazepine] | 1.9
COc1cc(-c2nc(-c3ccnc(C)c3)c3n2C[C@@H](C)OCC3)ccc1C(F)(F)F [Example 8, (R)-3-(3-methoxy-4-(trifluoromethyl)phenyl)-6-methyl-1-(2-methylpyridin-4-yl)-5,6,8,9-tetrahydroimidazo[1,5-d][1,4]oxazepine] | 13.2
Cc1cc(-c2nc(-c3ccc(F)c(OCC(C)C)c3)n3c2CCOCC3)cc(C)n1 [Example 95] | 49.5
COc1cc(-c2nc(-c3ccnc(CO)c3)c3n2C[C@@H](C)OCC3)ccc1Cl [Example 47] | 242
CCOc1cc(-c2nc(-c3ccnc(C)c3)c3n2C[C@@H](C)OCC3)ccc1C(F)(F)F [Example 83] | 1.7
COc1cc(-c2nc(-c3ccnc(CF)c3)c3n2C[C@@H](C)OCC3)ccc1Cl [Example 12, (R)-3-(4-chloro-3-methoxyphenyl)-1-(2-(fluoromethyl)pyridin-4-yl)-6-methyl-5,6,8,9-tetrahydroimidazo[1,5-d][1,4]oxazepine] | 28.3
Cc1cc(-c2nc(-c3ccc(C(F)(F)F)c(F)c3)n3c2CCOCC3)cc(C)n1 [Example 107] | 54
Cc1cc(-c2nc(-c3ccc(OC(F)(F)F)cc3)n3c2CCO[C@H](C)C3)cc(C)n1 [Example 51] | 7.8
Cc1cc(-c2nc(-c3ccc(Cl)c(OCC(F)(F)F)c3)n3c2CCOCC3)cc(C)n1 [Example 3, 3-(4-chloro-3-(2,2,2-trifluoroethoxy)phenyl)-1-(2,6-dimethylpyridin-4-yl)-5,6,8,9-tetrahydroimidazo[1,5-d][1,4]oxazepine] | 13.9

Structure (SMILES) | IC50 [nM]
COc1cc(-c2nc(-c3cc(C)nc(C)c3)c3n2C[C@@H](C)OCC3)ccc1F [Example 136] | 33.9
Cc1cc(-c2nc(-c3ccc(OC(F)(F)F)c(C)c3)n3c2CCO[C@H](C)C3)cc(C)n1 [Example 67] | 4.7
Cc1cc(-c2nc(-c3ccc(C(F)(F)F)c(Cl)c3)n3c2CCO[C@H](C)C3)ccn1 [Example 132] | 33.3
Cc1cc(-c2nc(-c3ccc(C(F)(F)F)c(Cl)c3)n3c2CCO[C@H](C)C3)cc(C)n1 [Example 129] | 15.7
Cc1cc(-c2nc(-c3ccc(OC(F)(F)F)cc3)n3c2CCO[C@H](CF)C3)ccn1 [Example 70] | 25.5
CCCOc1cc(-c2nc(-c3cc(C)nc(C)c3)c3n2CCOCC3)ccc1F [Example 96] | 59.8
Cc1cc(-c2nc(-c3ccc(OC(F)F)c(F)c3)n3c2CCOCC3)ccn1 [Example 120] | 47.2
COc1ccc(-c2nc(-c3cc(C)nc(C)c3)c3n2C[C@@H](C)OCC3)cc1Cl [Example 33, (R)-3-(3-chloro-4-methoxyphenyl)-1-(2,6-dimethylpyridin-4-yl)-6-methyl-5,6,8,9-tetrahydroimidazo[1,5-d][1,4]oxazepine] | 5
COc1cc(-c2nc(-c3cc(C)nc(C)c3)c3n2C[C@@H](C)OCC3)ccc1C [Example 53] | 21.3
COc1cc(-c2nc(-c3cc(C)nc(CF)c3)c3n2C[C@@H](CF)OCC3)ccc1Cl [Example 91] | 16.1
COc1cc(-c2nc(-c3cc(C)nc(C(F)F)c3)c3n2C[C@@H](CF)OCC3)ccc1C [Example 81] | 7.1
Cc1cc(-c2nc(-c3ccc(F)c(Cl)c3)n3c2CCO[C@H](C)C3)cc(C)n1 [Example 138] | 21.2
Cc1cc(-c2nc(-c3ccc(OCC(F)(F)F)c(F)c3)n3c2CCOCC3)cc(C)n1 [Example 2, 1-(2,6-dimethylpyridin-4-yl)-3-(3-fluoro-4-(2,2,2-trifluoroethoxy)phenyl)-5,6,8,9-tetrahydroimidazo[1,5-d][1,4]oxazepine] | 97.4
COc1cc(-c2nc(-c3ccc(Cl)c(OC)c3)n3c2CCO[C@H](C)C3)cc(C)n1 [Example 57] | 28.5
Cc1cc(-c2nc(-c3ccc(OC(F)(F)F)cc3)n3c2CCOCC3)cc(C)n1 [Example 42] | 45.3
COc1ccc(-c2nc(-c3cc(C)nc(C)c3)c3n2C[C@@H](CF)OCC3)cc1Cl [Example 36, (S)-3-(3-chloro-4-methoxyphenyl)-1-(2,6-dimethylpyridin-4-yl)-6-(fluoromethyl)-5,6,8,9-tetrahydroimidazo[1,5-d][1,4]oxazepine] | 10
Cc1cc(-c2nc(-c3ccc(OC(C)C)c(Cl)c3)n3c2CCO[C@H](CF)C3)cc(C)n1 [Example 38, (S)-3-(3-chloro-4-isopropoxyphenyl)-1-(2,6-dimethylpyridin-4-yl)-6-(fluoromethyl)-5,6,8,9-tetrahydroimidazo[1,5-d][1,4]oxazepine] | 5.4
CC[C@@H]1Cn2c(-c3ccc(Cl)c(OC)c3)nc(-c3cc(C)nc(C)c3)c2CCO1 [Example 77] | 11.5

Same assay, conditions: cell membrane fraction of HEK293 cells stably expressing human mGluR2; glutamic acid 10 μM; inhibition of specific [35S]GTPγS binding

Structure (SMILES) | IC50 [nM]
Cc1cc(-c2nc(-c3ccc(F)c(OC(F)(F)F)c3)n3c2CCO[C@H](C)C3)ccn1 [Example 158] | 44.6
Cc1cc(-c2nc(-c3ccc(OCC4CC4)c(Cl)c3)n3c2CCOCC3)cc(C)n1 [Example 217] | 60.6
Cc1cc(-c2nc(-c3ccc(OC(F)(F)F)c(C)c3)n3c2CCOCC3)cc(CF)n1 [Example 198] | 13.2
Cc1cc(-c2nc(-c3ccc(OC(F)(F)F)c(C#N)c3)n3c2CCO[C@H](C)C3)ccn1 [Example 169] | 4.6
Cc1cc(-c2nc(-c3ccc(OC(F)(F)F)c(C#N)c3)n3c2CCO[C@H](C)C3)cc(C)n1 [Example 168] | 4.2
CCOc1cc(-c2nc(-c3cc(C)nc(C)c3)c3n2C[C@@H](C)OCC3)ccc1C [Example 225] | 3.9
Cc1cc(-c2nc(-c3ccc(OC(F)(F)F)c(F)c3)n3c2CCO[C@H](CF)C3)ccn1 [Example 166] | 15.2
CCOc1cc(-c2nc(-c3ccnc(C)c3)c3n2C[C@@H](C)OCC3)ccc1C [Example 223] | 16.7
COc1cc(-c2nc(-c3cc(C)nc(CF)c3)c3n2C[C@@H](CF)OCC3)ccc1OC(F)F [Example 209] | 5.1
Cc1cc(-c2nc(-c3ccc(C)c(C(F)(F)F)c3)n3c2CCO[C@H](C)C3)cc(C)n1 [Example 183] | 7.4
COc1cc(-c2nc(-c3cc(C)nc(C(F)F)c3)c3n2C[C@@H](C)OCC3)ccc1OC(F)F [Example 192] | 5
CCc1ccc(-c2nc(-c3cc(C)nc(C)c3)c3n2C[C@@H](C)OCC3)cc1OCC1CC1 [Example 222] | 17.2
COc1cc(-c2nc(-c3cc(C)nc(CF)c3)c3n2C[C@@H](C)OCC3)ccc1C(F)(F)F [Example 200] | 4.4
Cc1cc(-c2nc(-c3ccc(OC(F)(F)F)c(C#N)c3)n3c2CCO[C@H](CF)C3)ccn1 [Example 196] | 3.8
Cc1cc(-c2nc(-c3ccc(OC(F)(F)F)c(F)c3)n3c2CCO[C@H](C)C3)cc(CO)n1 [Example 180] | 100
Cc1cc(-c2nc(-c3ccc(F)c(OC(F)(F)F)c3)n3c2CCO[C@H](C)C3)cc(C)n1 [Example 157] | 12.7
COc1ccc(-c2nc(-c3cc(C)nc(C)c3)c3n2C[C@@H](CF)OCC3)cc1OC(F)(F)F [Example 175] | 18.5
Cc1cc(-c2nc(-c3ccc(OC(F)F)c(CF)c3)n3c2CCO[C@H](C)C3)cc(C)n1 [Example 234] | 1.9
Cc1cc(-c2nc(-c3ccc(C(F)(F)F)c(C)c3)n3c2CCO[C@H](CF)C3)cc(C)n1 [Example 186] | 19.3
Cc1cc(-c2nc(-c3ccc(C)c(OCC4CC4)c3)n3c2CCO[C@H](C)C3)cc(C)n1 [Example 226] | 10.5
Cc1cc(-c2nc(-c3ccc(OC(F)(F)F)c(CO)c3)n3c2CCO[C@H](C)C3)ccn1 [Example 230] | 19.8
COc1cc(-c2nc(-c3cc(C)nc(C)c3)c3n2C[C@@H](C)OCC3)ccc1OC(F)F [Example 148] | 9.6
CCOc1cc(-c2nc(-c3ccnc(C)c3)c3n2CCOCC3)ccc1CC [Example 214] | 21
Cc1cc(-c2nc(-c3ccc(OC(F)F)c(Cl)c3)n3c2CCO[C@H](CF)C3)cc(C)n1 [Example 233] | 2
